Holding throughout (type): cell-based
One data set has as its system RAW 264.7 cells. Nature of the data set: Cell-killing assay by intracellular delivery of toxin protein saporin (WST-8). As to conditions: saporin 10 μg/mL, 40 μM. Here is the method:
Saporin is known as a cytotoxin that kills cancer cells by its intracellular delivery. RAW 264.7 cells and saporin (10 μg/mL) were incubated in the presence of HAad, HA/E2, or L17E (40 μM each) in α-MEM(−) medium for 1 hour. After the cells were then washed and the medium was replaced with DMEM(+), the cells were further incubated for 6 hours. The cell viability (%) was assayed by WST-8 assay (FIG. 10).
A general note: Tetrazolium assays rely on reduction of a dye to a coloured formazan, in cell work by metabolically active cells.

Data set [1] deals with HeLa cells. Put plainly: Release of Alexa 488-dextran (10 kDa) into the cytoplasm, confocal microscopy.
Data set [2] is described as follows: Cell viability 24 hours after peptide treatment in the presence of serum (WST-8). The following applies: cells (cell line not given); peptide 10 μM, 20 μM and 40 μM; α-MEM(+) 24 hours; WST-8. Here is the method: (§1) After the cells were incubated in the presence of HAad, HA/E2, or L17E (each 10 μM, 20 μM, and 40 μM) in α-MEM(+) medium for 24 hours, the cell viability (%) was evaluated by WST-8 assay (FIG. 14). The cell viability (%) after 24 hours with the use of any peptide at any concentration was almost 100%.

The next data set has as its system cells. Described as above. As to conditions: 10-40 μM; α-MEM(+) 24 hours. Here is the method:
as §1

Data set [3] relates to HeLa cells. Put plainly: Intracellular release of Alexa 488-labeled human immunoglobulin (IgG, circa 160 kDa). As to conditions: for cells in which intracellular release of human immunoglobulin was observed: α-MEM(−) 1 hour. Here is the method: The cells and human immunoglobulin fluorescently labeled with Alexa 488 (IgG, circa 160 kDa) (500 μg/mL) were incubated in the presence of HAad, HA/E2, or L17E (40 μM each) in α-MEM(−) medium for 1 hour in the same manner as in Example 6.
The cells and human immunoglobulin fluorescently labeled with Alexa 488 (IgG, circa 160 kDa) (50 μg/mL: 1/10 the volume of Example 8) were incubated in the presence of HAad or L17E (40 μM each) in α-MEM(−) medium for 1 hour.
In the presence of HAad or L17E (20 μM each: ½ the amount used in Examples 8 and 9), the cells and human immunoglobulin fluorescently labeled with Alexa 488 (IgG, circa 160 kDa) (500 μg/mL: the same amount as in Example 8) were incubated in α-MEM(−) medium for 1 hour. […] (In FIG. 9, the intracellular release achieved by treatment with a low concentration of HAad was 2.5 times the release achieved by L17E. With respect to the peptide concentration required to detect the signal of intracellularly released human immunoglobulin in 35% of the cells, the concentration of L17E is 40 μM, and the concentration of HAad is 20 μM, which is half the concentration of L17E.)

For orientation: viability means the share of living cells, or the viability signal relative to a control.

pEC50: −log10 of the molar value. Residues, ends and D or L forms follow the SMILES beside them.

With `CC[C@H](C)[C@H](N)C(=O)N[C@@H](Cc1c[nH]c2ccccc12)C(=O)N[C@@H](CC(C)C)C(=O)N[C@H](C(=O)N[C@@H](C)C(=O)N[C@@H](CC(C)C)C(=O)N[C@@H](CCCCN)C(=O)N[C@@H](Cc1ccccc1)C(=O)N[C@@H](CC(C)C)C(=O)NCC(=O)N[C@@H](CCCCN)C(=O)N[C@@H](C)C(=O)N[C@@H](C)C(=O)N[C@@H](C)C(=O)N[C@@H](CCCCN)C(=O)N[C@@H](C)C(=O)N[C@@H](CCCC(=O)O)C(=O)N[C@@H](C)C(=O)N[C@@H](CCCCN)C(=O)N[C@@H](CCC(N)=O)C(=O)N[C@@H](CCCC(=O)O)C(=O)N[C@@H](CC(C)C)C(=O)N[C@@H](CO)C(=O)N[C@@H](CCCCN)C(=O)N[C@@H](CC(C)C)C(N)=O)[C@@H](C)O` [HAad, H-IWLTALKFLGKAAAKAXAKQXLSKL-amide] (HELM PEPTIDE1{I.W.L.T.A.L.K.F.L.G.K.A.A.A.K.A.[O=C(O)CCC[C@H](N[*:1])C(=O)[*:2]].A.K.Q.[O=C(O)CCC[C@H](N[*:1])C(=O)[*:2]].L.S.K.L.[am]}$$$$V2.0), the “cell viability relative to that in the presence of L17E” value in the data set on RAW 264.7 cells is “¼”. Moreover, in the data set with HeLa cells [1] (Alexa 488-dextran (10 kDa) 200 μg/mL, 1 hour, read-out: peptide concentration required to detect the signal of intracellularly released Alexa 488-dextran in 50% of the cells), the pEC50 was 4.70. For the same molecule, in the data set with HeLa cells [1] (dextran release, HAad vs L17E), the “EC50 relative to L17E” value was “½”. The viability at 24 h in data set [2] is roughly 100%. In the data set on cells, the “toxicity, in words” value was “no significant toxicity”. In addition, the “peptide concentration required to detect the signal of intracellularly released human immunoglobulin in 35% of the cells” value with HeLa cells [3] (IgG 500 μg/mL, 1 hour) was determined as 20 µM. The “intracellular release of IgG relative to L17E” value with HeLa cells [3] (peptide 20 μM, IgG 500 μg/mL (FIG. 9)) is reported as 2.5 times; in the data set on HeLa cells [3] (peptide 40 μM, IgG 50 μg/mL (FIG. 8)), 5 times; in the data set on HeLa cells [3] (peptide 40 μM, IgG 500 μg/mL (FIG. 7)), “twice”. The “cells in which intracellular release of human immunoglobulin was observed” value in the data set on HeLa cells [3] (peptide 20 μM, IgG 500 μg/mL) is recorded as “about 37%”; with HeLa cells [3] (peptide 40 μM, IgG 50 μg/mL), 50%; with HeLa cells [3] (peptide 40 μM, IgG 500 μg/mL), “about 70%”. The “IgG dose required for intracellular IgG release in 50% of the cells, relative” value in the data set with HeLa cells [3] (peptide 40 μM, HAad treatment compared with L17E) is on record as 1/10.
